Source: ChEMBL document CHEMBL1201862, “PubChem BioAssay data set” (2004)
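Step 1: Grow cells in 96-well plates. Step 2: Expose to compound for 48 hours at 5 concentrations. Step 3: Interpolate endpoints linearly; if unreached, use highest concentration. GI50: concentration for 50% inhibition of growth.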 The source made the active and inactive calls. Rule as the data show it: active = GI50 up to about 1.1 µM and inactive = higher.

What was measured:
Test in all cases: growth of human tumour cells (NCI), 48 h
SNB-19 = test system: SNB-19
DU-145 = test system: DU-145
A498 = test system: A498
A549 = test system: A549
HCT-116 = test system: HCT-116
UO-31 = test system: UO-31
RPMI-8226 = test system: RPMI-8226
K562 = test system: K562
ACHN = test system: ACHN
MDA-N = test system: MDA-N
786-0 = test system: 786-0
UACC-257 = test system: UACC-257
OVCAR-4 = test system: OVCAR-4
MOLT-4 = test system: MOLT-4
MDA-MB-435 = test system: MDA-MB-435
CCRF-CEM = test system: CCRF-CEM
OVCAR-3 = test system: OVCAR-3
COLO 205 = test system: COLO 205
SK-MEL-2 = test system: SK-MEL-2
HT-29 = test system: HT-29
NCI-H226 = test system: NCI-H226
NCI-H23 = test system: NCI-H23
NCI/ADR-RES = test system: NCI/ADR-RES
UACC-62 = test system: UACC-62
HOP-92 = test system: HOP-92
MDA-MB-231 = test system: MDA-MB-231
OVCAR-5 = test system: OVCAR-5
LOX IMVI = test system: LOX IMVI
TK-10 = test system: TK-10
SF-295 = test system: SF-295
NCI-H522 = test system: NCI-H522
Hs-578T = test system: Hs-578T
SK-MEL-5 = test system: SK-MEL-5
RXF 393 = test system: RXF 393
HOP-62 = test system: HOP-62
PC-3 = test system: PC-3
U-251 = test system: U-251
MCF7 = test system: MCF7
HCT-15 = test system: HCT-15
M14 = test system: M14
EKVX = test system: EKVX
Malme-3M = test system: Malme-3M
SF-268 = test system: SF-268
SNB-75 = test system: SNB-75
SN12C = test system: SN12C
SR = test system: SR
SK-OV-3 = test system: SK-OV-3
SK-MEL-28 = test system: SK-MEL-28
SF-539 = test system: SF-539
CAKI-1 = test system: CAKI-1
IGROV-1 = test system: IGROV-1
BT-549 = test system: BT-549
HL-60 = test system: HL-60
T47D = test system: T47D
OVCAR-8 = test system: OVCAR-8
KM12 = test system: KM12
HCC 2998 = test system: HCC 2998
SW-620 = test system: SW-620
NCI-H460 = test system: NCI-H460

Question: Which results are given for CC(=O)N(C)c1ccc(/N=C/N(C)C)cc1?
Answer: GI50 (SNB-19): > 100 µM (inactive); GI50 (DU-145): > 100 µM (inactive); GI50 (A498): > 100 µM (inactive); GI50 (A549): > 100 µM (inactive); GI50 (HCT-116): > 100 µM (inactive); GI50 (UO-31): > 100 µM (inactive); GI50 (RPMI-8226): > 100 µM (inactive); GI50 (K562): > 100 µM (inactive); GI50 (ACHN): > 100 µM (inactive); GI50 (MDA-N): > 100 µM (inactive); GI50 (786-0): > 100 µM (inactive); GI50 (UACC-257): > 100 µM (inactive); GI50 (OVCAR-4): > 100 µM (inactive); GI50 (MOLT-4): > 100 µM (inactive); GI50 (MDA-MB-435): > 100 µM (inactive); GI50 (CCRF-CEM): > 100 µM (inactive); GI50 (OVCAR-3): 44 µM (inactive); GI50 (COLO 205): > 100 µM (inactive); GI50 (SK-MEL-2): > 100 µM (inactive); GI50 (HT-29): > 100 µM (inactive); GI50 (NCI-H226): > 100 µM (inactive); GI50 (NCI-H23): > 100 µM (inactive); GI50 (NCI/ADR-RES): > 100 µM (inactive); GI50 (UACC-62): > 100 µM (inactive); GI50 (HOP-92): > 100 µM (inactive); GI50 (MDA-MB-231): > 100 µM (inactive); GI50 (OVCAR-5): > 100 µM (inactive); GI50 (LOX IMVI): > 100 µM (inactive); GI50 (TK-10): > 100 µM (inactive); GI50 (SF-295): > 100 µM (inactive); GI50 (NCI-H522): > 100 µM (inactive); GI50 (Hs-578T): > 10 µM (inactive); GI50 (SK-MEL-5): > 100 µM (inactive); GI50 (RXF 393): > 100 µM (inactive); GI50 (HOP-62): > 100 µM (inactive); GI50 (PC-3): > 100 µM (inactive); GI50 (U-251): > 100 µM (inactive); GI50 (MCF7): 82.4 µM (inactive); GI50 (HCT-15): > 100 µM; GI50 (M14): > 100 µM (inactive); GI50 (EKVX): > 100 µM (inactive); GI50 (Malme-3M): > 100 µM (inactive); GI50 (SF-268): > 100 µM (inactive); GI50 (SNB-75): > 100 µM (inactive); GI50 (SN12C): > 100 µM (inactive); GI50 (SR): > 100 µM (inactive); GI50 (SK-OV-3): > 100 µM (inactive); GI50 (SK-MEL-28): > 100 µM (inactive); GI50 (SF-539): > 100 µM (inactive); GI50 (CAKI-1): > 100 µM (inactive); GI50 (IGROV-1): > 100 µM (inactive); GI50 (BT-549): > 100 µM (inactive); GI50 (HL-60): > 100 µM (inactive); GI50 (T47D): > 100 µM (inactive); GI50 (OVCAR-8): > 100 µM (inactive)

Question: For CCOC(=O)c1ccc(C(=O)/C(C#N)=C2\CCCN2)n1C, which GI50 (SNB-19) is on record?
Answer: > 100 µM (inactive)

Question: What about the GI50 (KM12) of the same compound?
Answer: > 100 µM (inactive)

Question: What about the GI50 (DU-145) of the same compound?
Answer: 95.1 µM (inactive)

Question: And the GI50 (A498)?
Answer: > 100 µM (inactive)

Question: What about the GI50 (A549) of the same compound?
Answer: > 100 µM (inactive)

Question: And the GI50 (HCT-116)?
Answer: > 100 µM (inactive)

Question: What about the GI50 (UO-31) of the same compound?
Answer: > 100 µM (inactive)

Question: And the GI50 (RPMI-8226)?
Answer: 0.703 µM (active)

Question: What about the GI50 (HCC 2998) of the same compound?
Answer: > 100 µM (inactive)

Question: And the GI50 (K562)?
Answer: 13.3 µM (inactive)

Question: What about the GI50 (ACHN) of the same compound?
Answer: > 100 µM (inactive)

Question: And the GI50 (MDA-N)?
Answer: 34 µM (inactive)

Question: What about the GI50 (786-0) of the same compound?
Answer: > 100 µM (inactive)

Question: And the GI50 (OVCAR-4)?
Answer: > 100 µM (inactive)

Question: And the GI50 (MOLT-4)?
Answer: 13.6 µM (inactive)

Question: And the GI50 (MDA-MB-435)?
Answer: 31.2 µM (inactive)

Question: What about the GI50 (CCRF-CEM) of the same compound?
Answer: > 100 µM (inactive)

Question: And the GI50 (OVCAR-3)?
Answer: 68.4 µM (inactive)

Question: What about the GI50 (COLO 205) of the same compound?
Answer: > 100 µM (inactive)

Question: And the GI50 (SK-MEL-2)?
Answer: > 100 µM (inactive)

Question: What about the GI50 (SW-620) of the same compound?
Answer: > 100 µM (inactive)

Question: What about the GI50 (HT-29) of the same compound?
Answer: 79.4 µM (inactive)

Question: What about the GI50 (NCI-H226) of the same compound?
Answer: 79.1 µM (inactive)

Question: And the GI50 (NCI-H23)?
Answer: 97.5 µM (inactive)

Question: And the GI50 (NCI/ADR-RES)?
Answer: 34.2 µM (inactive)

Question: What about the GI50 (UACC-62) of the same compound?
Answer: > 100 µM (inactive)

Question: What about the GI50 (MDA-MB-231) of the same compound?
Answer: > 100 µM (inactive)

Question: And the GI50 (NCI-H460)?
Answer: > 100 µM (inactive)

Question: And the GI50 (OVCAR-5)?
Answer: > 100 µM (inactive)

Question: What about the GI50 (LOX IMVI) of the same compound?
Answer: 86.5 µM (inactive)

Question: What about the GI50 (SF-295) of the same compound?
Answer: > 100 µM (inactive)

Question: What about the GI50 (NCI-H522) of the same compound?
Answer: 95.7 µM (inactive)

Question: And the GI50 (Hs-578T)?
Answer: > 100 µM (inactive)

Question: What about the GI50 (SK-MEL-5) of the same compound?
Answer: 33.6 µM (inactive)

Question: What about the GI50 (RXF 393) of the same compound?
Answer: 25.7 µM (inactive)

Question: And the GI50 (HOP-62)?
Answer: > 100 µM (inactive)

Question: What about the GI50 (PC-3) of the same compound?
Answer: > 100 µM (inactive)

Question: What about the GI50 (U-251) of the same compound?
Answer: > 100 µM (inactive)

Question: And the GI50 (MCF7)?
Answer: 40.4 µM (inactive)

Question: What about the GI50 (HCT-15) of the same compound?
Answer: 76.4 µM

Question: And the GI50 (M14)?
Answer: > 100 µM (inactive)

Question: What about the GI50 (EKVX) of the same compound?
Answer: > 100 µM (inactive)

Question: What about the GI50 (Malme-3M) of the same compound?
Answer: > 100 µM (inactive)

Question: And the GI50 (SF-268)?
Answer: > 100 µM (inactive)

Question: And the GI50 (SNB-75)?
Answer: 24.7 µM (inactive)

Question: What about the GI50 (SN12C) of the same compound?
Answer: > 100 µM (inactive)

Question: And the GI50 (SR)?
Answer: 31 µM (inactive)

Question: And the GI50 (SK-OV-3)?
Answer: > 100 µM (inactive)

Question: What about the GI50 (SK-MEL-28) of the same compound?
Answer: > 100 µM (inactive)

Question: What about the GI50 (CAKI-1) of the same compound?
Answer: > 100 µM (inactive)

Question: What about the GI50 (IGROV-1) of the same compound?
Answer: > 100 µM (inactive)

Question: And the GI50 (BT-549)?
Answer: 78.9 µM (inactive)

Question: And the GI50 (HL-60)?
Answer: 34.2 µM (inactive)

Question: And the GI50 (T47D)?
Answer: 28.2 µM (inactive)

Question: And the GI50 (OVCAR-8)?
Answer: > 100 µM (inactive)
